From patent publication US9040523B2, “Antifungal 5,6-dihydro-4H-pyrrolo[1,2-α][1,4]-benzodiazepines and 6H-pyrrolo[1,2-α][1,4]benzodiazepines substituted with benzene derivatives” (JANSSEN PHARMACEUTICA NV, priority 2010, dated 2015)

Test system: not listed separately
Test: Liver metabolic stability assay, hLM
Assay type: in vitro ADME, human
Settings: human liver microsomes, 1 mg protein/ml, 5 μM test compound, 15 min, 37 °C

SMILES | %-compound metabolised_Met_hLM
CC(=O)c1ccc(C2=NCc3cccc(Cl)c3-n3cccc32)cc1 [Compound 15, 1-[4-(10-chloro-6H-pyrrolo[1,2-a][1,4]benzodiazepin-4-yl)phenyl]-ethanone] | 17%
CC(=O)c1cccc(C2=NCc3c(Cl)cccc3-n3cccc32)c1 [Compound 16, 1-[3-(7-chloro-6H-pyrrolo[1,2-a][1,4]benzodiazepin-4-yl)phenyl]-ethanone] | 87%
CC(=O)c1cc(C2=NCc3c(Cl)cccc3-n3cccc32)ccc1F [Compound 19, 1-[5-(7-chloro-6H-pyrrolo[1,2-a][1,4]benzodiazepin-4-yl)-2-fluorophenyl]-ethanone] | 36%

Test system: Rhizomucor miehei IHEM13391
Test: Antifungal activity in vitro (resazurin susceptibility screen), Inf. K
Assay type: cell-based
Settings: 37 °C, 48 hours, resa time 17 hours, read-out: Inf. K pIC50 (converted)
Procedure: (§1) The standard susceptibility screen was performed in 96-well plates (U-bottom, Greiner Bio-One). […] These serial dilutions (10 n1) were then spotted onto test-plates that could be stored in the dark at 4° C. for a maximum period of 2 weeks. […] The different fungal species/isolates (Table 3a) were cryopreserved and 1/1000 diluted in medium just prior to use. A standard inoculum of 200 μl containing 10^3 colony-forming unit (cfu) was then added to each well. A positive control (100% growth=fungal culture without antifungal) and a negative control (0% growth ═RPMI-MOPS medium) were included on each plate. […] [table]

SMILES | IC50
CC(=O)c1ccc(C2=NCc3cccc(Cl)c3-n3cccc32)cc1 [Compound 15, 1-[4-(10-chloro-6H-pyrrolo[1,2-a][1,4]benzodiazepin-4-yl)phenyl]-ethanone] | 7.94 µM
CC(=O)c1cccc(C2=NCc3c(Cl)cccc3-n3cccc32)c1 [Compound 16, 1-[3-(7-chloro-6H-pyrrolo[1,2-a][1,4]benzodiazepin-4-yl)phenyl]-ethanone] | > 63.1 µM
CC(=O)c1cc(C2=NCc3c(Cl)cccc3-n3cccc32)ccc1F [Compound 19, 1-[5-(7-chloro-6H-pyrrolo[1,2-a][1,4]benzodiazepin-4-yl)-2-fluorophenyl]-ethanone] | > 63.1 µM

Test system: Sporothrix schenkii B62482
Test: Antifungal activity in vitro (resazurin susceptibility screen), Inf. A
Assay type: cell-based
Settings: Sporothrix, B62482, Sporothrix schenkii B62482; 27 °C, 4 days, resa time 24 hours; highest in-test concentration 64 μM; read-out: Inf. A pIC50 (converted)
In short: (§2)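 Compound serial dilutions were spotted onto test plates, kept in the dark at 4 °C for at most 2 weeks. Cryopreserved isolates were diluted 1/1000 in medium just before use and added at 10^3 cfu per well. Each plate carried drug-free culture as 100% growth and RPMI-MOPS medium alone as 0% growth.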

SMILES | IC50
CC(=O)c1ccc(C2=NCc3cccc(Cl)c3-n3cccc32)cc1 [Compound 15, 1-[4-(10-chloro-6H-pyrrolo[1,2-a][1,4]benzodiazepin-4-yl)phenyl]-ethanone] | 1.58 µM
CC(=O)c1cccc(C2=NCc3c(Cl)cccc3-n3cccc32)c1 [Compound 16, 1-[3-(7-chloro-6H-pyrrolo[1,2-a][1,4]benzodiazepin-4-yl)phenyl]-ethanone] | 25.1 µM
CC(=O)c1cc(C2=NCc3c(Cl)cccc3-n3cccc32)ccc1F [Compound 19, 1-[5-(7-chloro-6H-pyrrolo[1,2-a][1,4]benzodiazepin-4-yl)-2-fluorophenyl]-ethanone] | > 63.1 µM

Test system: Trichophyton mentagrophytes B70554
Test: Antifungal activity in vitro (resazurin susceptibility screen), Inf. G
Assay type: cell-based
Settings: Trichophyton mentagrophytes, B70554, Trichophyton mentagrophytes B70554; 27 °C, 7 days, resa time 24 hours; read-out: Inf. G pIC50 (converted)
In short: (§3)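 Each well was inoculated with 10^3 cfu of fungus onto dried, pre-spotted compound serial dilutions in RPMI-MOPS medium, with fungal growth read by resazurin. Growth was referenced to drug-free culture (100%) and medium-only (0%) controls on each plate.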

SMILES | IC50
CC(=O)c1ccc(C2=NCc3cccc(Cl)c3-n3cccc32)cc1 [Compound 15, 1-[4-(10-chloro-6H-pyrrolo[1,2-a][1,4]benzodiazepin-4-yl)phenyl]-ethanone] | 398 nM
CC(=O)c1cccc(C2=NCc3c(Cl)cccc3-n3cccc32)c1 [Compound 16, 1-[3-(7-chloro-6H-pyrrolo[1,2-a][1,4]benzodiazepin-4-yl)phenyl]-ethanone] | 398 nM
CC(=O)c1cc(C2=NCc3c(Cl)cccc3-n3cccc32)ccc1F [Compound 19, 1-[5-(7-chloro-6H-pyrrolo[1,2-a][1,4]benzodiazepin-4-yl)-2-fluorophenyl]-ethanone] | 794 nM

Test system: Scedosporium prolificans IHEM21157
Test: Antifungal activity in vitro (resazurin susceptibility screen), Inf. I
Assay type: cell-based
Settings: Lomentospora prolificans, 37 °C, 48 hours, resa time 17 hours, read-out: Inf. I pIC50 (converted)
Procedure: as §1

SMILES | IC50
CC(=O)c1ccc(C2=NCc3cccc(Cl)c3-n3cccc32)cc1 [Compound 15, 1-[4-(10-chloro-6H-pyrrolo[1,2-a][1,4]benzodiazepin-4-yl)phenyl]-ethanone] | 2000 nM
CC(=O)c1cccc(C2=NCc3c(Cl)cccc3-n3cccc32)c1 [Compound 16, 1-[3-(7-chloro-6H-pyrrolo[1,2-a][1,4]benzodiazepin-4-yl)phenyl]-ethanone] | > 63100 nM
CC(=O)c1cc(C2=NCc3c(Cl)cccc3-n3cccc32)ccc1F [Compound 19, 1-[5-(7-chloro-6H-pyrrolo[1,2-a][1,4]benzodiazepin-4-yl)-2-fluorophenyl]-ethanone] | 1260 nM

Test system: Rhizopus oryzae IHEM5223
Test: Antifungal activity in vitro (resazurin susceptibility screen), Inf. J
Assay type: cell-based
Settings: Rhizopus arrhizus, 37 °C, 24 hours, resa time 6 hours, read-out: Inf. J pIC50 (converted)
Procedure: as §1

SMILES | IC50
CC(=O)c1ccc(C2=NCc3cccc(Cl)c3-n3cccc32)cc1 [Compound 15, 1-[4-(10-chloro-6H-pyrrolo[1,2-a][1,4]benzodiazepin-4-yl)phenyl]-ethanone] | > 63.1 µM
CC(=O)c1cccc(C2=NCc3c(Cl)cccc3-n3cccc32)c1 [Compound 16, 1-[3-(7-chloro-6H-pyrrolo[1,2-a][1,4]benzodiazepin-4-yl)phenyl]-ethanone] | > 63.1 µM
CC(=O)c1cc(C2=NCc3c(Cl)cccc3-n3cccc32)ccc1F [Compound 19, 1-[5-(7-chloro-6H-pyrrolo[1,2-a][1,4]benzodiazepin-4-yl)-2-fluorophenyl]-ethanone] | > 63.1 µM

Test system: Mucor circinelloides IHEM21105
Test: Antifungal activity in vitro (resazurin susceptibility screen), Inf. L
Assay type: cell-based
Settings: 27 °C, 48 hours, resa time 17 hours, read-out: Inf. L pIC50 (converted)
Procedure: as §1

SMILES | IC50
CC(=O)c1ccc(C2=NCc3cccc(Cl)c3-n3cccc32)cc1 [Compound 15, 1-[4-(10-chloro-6H-pyrrolo[1,2-a][1,4]benzodiazepin-4-yl)phenyl]-ethanone] | > 63.1 µM
CC(=O)c1cccc(C2=NCc3c(Cl)cccc3-n3cccc32)c1 [Compound 16, 1-[3-(7-chloro-6H-pyrrolo[1,2-a][1,4]benzodiazepin-4-yl)phenyl]-ethanone] | > 63.1 µM
CC(=O)c1cc(C2=NCc3c(Cl)cccc3-n3cccc32)ccc1F [Compound 19, 1-[5-(7-chloro-6H-pyrrolo[1,2-a][1,4]benzodiazepin-4-yl)-2-fluorophenyl]-ethanone] | > 63.1 µM

Test system: Candida parapsilosis B66126
Test: Antifungal activity in vitro (resazurin susceptibility screen), Inf. D
Assay type: cell-based
Settings: Lodderomyces parapsilosis; Candida parapsilosis B66126; 37 °C, 24 hours, resa time 4 hours; read-out: Inf. D pIC50 (converted)
In short: as §3

SMILES | IC50
CC(=O)c1ccc(C2=NCc3cccc(Cl)c3-n3cccc32)cc1 [Compound 15, 1-[4-(10-chloro-6H-pyrrolo[1,2-a][1,4]benzodiazepin-4-yl)phenyl]-ethanone] | > 63.1 µM
CC(=O)c1cccc(C2=NCc3c(Cl)cccc3-n3cccc32)c1 [Compound 16, 1-[3-(7-chloro-6H-pyrrolo[1,2-a][1,4]benzodiazepin-4-yl)phenyl]-ethanone] | > 63.1 µM
CC(=O)c1cc(C2=NCc3c(Cl)cccc3-n3cccc32)ccc1F [Compound 19, 1-[5-(7-chloro-6H-pyrrolo[1,2-a][1,4]benzodiazepin-4-yl)-2-fluorophenyl]-ethanone] | > 63.1 µM

Test system: Aspergillus fumigatus B42928
Test: Antifungal activity in vitro (resazurin susceptibility screen), Inf. E
Assay type: cell-based
Settings: Aspergillus fumigatus B42928; 27 °C, 48 hours, resa time 17 hours; read-out: Inf. E pIC50 (converted)
In short: as §2

SMILES | IC50
CC(=O)c1ccc(C2=NCc3cccc(Cl)c3-n3cccc32)cc1 [Compound 15, 1-[4-(10-chloro-6H-pyrrolo[1,2-a][1,4]benzodiazepin-4-yl)phenyl]-ethanone] | 501 nM
CC(=O)c1cccc(C2=NCc3c(Cl)cccc3-n3cccc32)c1 [Compound 16, 1-[3-(7-chloro-6H-pyrrolo[1,2-a][1,4]benzodiazepin-4-yl)phenyl]-ethanone] | 631 nM
CC(=O)c1cc(C2=NCc3c(Cl)cccc3-n3cccc32)ccc1F [Compound 19, 1-[5-(7-chloro-6H-pyrrolo[1,2-a][1,4]benzodiazepin-4-yl)-2-fluorophenyl]-ethanone] | 2000 nM

Molecular target: CYP2D6 (Homo sapiens, UniProt P10635)
Test: Cytochrome P450 inhibition, Protocol A, cDNA expressed proteins, fluorogenic substrate
Assay type: in vitro ADME
Settings: % inhibition at 10 μM; substrate AMMC; cDNA expressed protein
In short: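 cDNA-expressed enzymes with fluorogenic substrates (three separate ones for CYP3A4) in sodium/potassium buffer pH 7.4 plus NADPH-generating system. Compounds at 1 nM to 10 μM final, prewarmed 5 min at 37° C, reaction started with NADP+, stopped, then fluorescence measured.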

Chain of CYP2D6 (P10635 whole entry): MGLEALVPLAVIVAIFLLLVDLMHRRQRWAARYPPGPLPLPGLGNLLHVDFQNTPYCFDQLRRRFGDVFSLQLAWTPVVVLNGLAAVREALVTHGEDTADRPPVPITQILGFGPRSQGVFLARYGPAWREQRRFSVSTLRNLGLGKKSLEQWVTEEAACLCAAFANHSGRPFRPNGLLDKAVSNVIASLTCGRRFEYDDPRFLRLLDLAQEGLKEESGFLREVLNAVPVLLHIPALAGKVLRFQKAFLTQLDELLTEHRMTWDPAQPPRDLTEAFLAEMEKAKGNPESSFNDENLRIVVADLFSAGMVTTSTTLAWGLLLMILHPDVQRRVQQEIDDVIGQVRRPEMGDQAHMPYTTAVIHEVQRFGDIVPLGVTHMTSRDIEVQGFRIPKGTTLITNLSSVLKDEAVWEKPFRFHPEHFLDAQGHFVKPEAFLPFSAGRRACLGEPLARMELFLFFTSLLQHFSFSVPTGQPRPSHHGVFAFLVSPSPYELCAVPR

SMILES | hCYP2D6_AMMC_Pct_Inh
CC(=O)c1ccc(C2=NCc3cccc(Cl)c3-n3cccc32)cc1 [Compound 15, 1-[4-(10-chloro-6H-pyrrolo[1,2-a][1,4]benzodiazepin-4-yl)phenyl]-ethanone] | 63%
CC(=O)c1cccc(C2=NCc3c(Cl)cccc3-n3cccc32)c1 [Compound 16, 1-[3-(7-chloro-6H-pyrrolo[1,2-a][1,4]benzodiazepin-4-yl)phenyl]-ethanone] | 55%
CC(=O)c1cc(C2=NCc3c(Cl)cccc3-n3cccc32)ccc1F [Compound 19, 1-[5-(7-chloro-6H-pyrrolo[1,2-a][1,4]benzodiazepin-4-yl)-2-fluorophenyl]-ethanone] | 33%

Test system: not listed separately
Test: Liver metabolic stability assay, gpLM
Assay type: in vitro ADME, guinea pig
Settings: guinea pig microsomes, 1 mg protein/ml, 5 μM test compound, 15 min, 37 °C

SMILES | %-compound metabolised Met_gpLM
CC(=O)c1ccc(C2=NCc3cccc(Cl)c3-n3cccc32)cc1 [Compound 15, 1-[4-(10-chloro-6H-pyrrolo[1,2-a][1,4]benzodiazepin-4-yl)phenyl]-ethanone] | 44%
CC(=O)c1cccc(C2=NCc3c(Cl)cccc3-n3cccc32)c1 [Compound 16, 1-[3-(7-chloro-6H-pyrrolo[1,2-a][1,4]benzodiazepin-4-yl)phenyl]-ethanone] | 100%
CC(=O)c1cc(C2=NCc3c(Cl)cccc3-n3cccc32)ccc1F [Compound 19, 1-[5-(7-chloro-6H-pyrrolo[1,2-a][1,4]benzodiazepin-4-yl)-2-fluorophenyl]-ethanone] | 80%
